Assay results reported in patent publication US20160375042A1, “USE OF CAMPTOTHECIN DERIVATIVE IN PREPARING PHARMACEUTICAL USED FOR TREATING MULTIPLE MYELOMA” (priority 2014, published 2016).

Assays:
[1] = Water-solubility test of compounds of Formula II and Formula IV; type: physicochemical; conditions: the C-20 phosphite salt (Formula II) itself, read-out: Water-solubility of Comp of Formula II
[2] = tested on: S1 and S1-M1-80 (characteristic expression of ABCG2/BCRP); test: Anti-drug resistance test (MTT, resistance index); type: cell-based; conditions: S1-M1-80 (ABCG2/BCRP) versus S1 cells, 72 h, from IC50
Description: Logarithmic growth phase S1 and S1-M1-80 (characteristic expression of ABCG2/BCRP) were prepared as cell suspension of 2.5×10^4 cells/ml and 6×10^4 cells/ml, and were seeded in into 96-well plates with 0.19 ml/well. After incubating in cell incubator for 24 hours at 37° C., 5% CO2, sample solutions in various concentrations were added at 0.01 ml/well. Stroke-physiological saline solution is used as control well. Each treatment is conducted in 3 parallel wells. The drugs were added and incubated additional 72 h hours. And 5 mg/ml of MTT is added at 0.02 ml/well before four hours of the end the incubation. The culture liquid is removed at the end of incubation. Each well was added 0.1 ml of DMSO and OD values were measured at wavelength of 540 nm and reference wavelength of 655 nm. The experiment was repeated three times. Equation 1 is used to calculate cell growth inhibition rate (IR); and Equation 2 is used to calculate resistance index. Bliss method is used to calculate the 50% inhibitory concentration (IC50).

[3] = tested on: human multiple myeloma cells NCI-H929 xenografts; test: Tumor inhibitory effect on multiple myeloma cells NCI-H929 xenografts in nude mice; type: in vivo, BALB/c nude mouse
Description: Multiple myeloma cells were routinely passaged in vitro, inoculated in 40 6-7-week-old BALB/c nude mouse, each mouse was subcutaneously injected human multiple myeloma cells NCI-H929 at its right axillary. Weighed after two days. The mice were randomly divided into five groups, eight in each group. Each group was dosed as follows: • i. physiological saline control group • ii. Topotecan positive control group, 2 mg/kg, once every 4 days, intraperitoneal injection • iii. WQ1001, high-dose group, 35 mg/kg, once every 4 days, intraperitoneal injection • iv. WQ1001, middle dose group, 25 mg/kg, once every 4 days, intraperitoneal injectionv. v. WQ1001, low dose group, 18 mg/kg, once every 4 days, intraperitoneal injection
Body weight(BW) as well as long diameter and short diameter of tumors were measured every two days. Tumor volume was calculated according to the Equation 1. On the 11th day after inoculation, the mice were weighed, long diameter and short diameter of tumors were measured, and relative tumor volume (RTV) was calculated according to Equation 2. Mice were sacrificed by cervical dislocation and the tumor mass was stripped and weighed. Inhibition rate (IR) was calculated according to the Equation 3. RTV and tumor weight (TW) for each group were analyzed through T-test.

[4] = Topotecan 2 mg/kg, once every 4 days, intraperitoneal, 11th day
[5] = Topotecan 2 mg/kg, once every 4 days, intraperitoneal, end (11th day after inoculation)
[6] = Topotecan 2 mg/kg, once every 4 days, intraperitoneal, initial

Row | SMILES | solubility [1] [µg/mL] | Resistance index [2] | other results
1 | CCc1ccc2nc3c(cc2c1)Cn1c-3cc2c(c1=O)COC(=O)[C@@]2(CC)O[PH](=O)[O-].[Na+] [WQ1119] | > 10000 |  | 
2 | CC[C@@]1(O[PH](=O)[O-])C(=O)OCc2c1cc1n(c2=O)Cc2cc3cc(C)ccc3nc2-1.[Na+] [WQ1118] | > 10000 | 67 | 
3 | CCCCc1ccc2nc3c(c(OC)c2c1)Cn1c-3cc2c(c1=O)COC(=O)[C@@]2(CC)O[PH](=O)[O-].[Na+] [WQ1126] | > 10000 |  | 
4 | CCc1c2c(nc3ccc(Br)cc13)-c1cc3c(c(=O)n1C2)COC(=O)[C@@]3(CC)O[PH](=O)[O-].[Na+] [WQ1110] | > 10000 |  | 
5 | CCc1c2c(nc3cc(F)c(F)cc13)-c1cc3c(c(=O)n1C2)COC(=O)[C@@]3(CC)O[PH](=O)[O-].[Na+] [WQ1111] | > 10000 | 7 | 
6 | CC[C@@]1(O[PH](=O)[O-])C(=O)OCc2c1cc1n(c2=O)Cc2c-1nc1ccccc1c2/C=N/OC(C)(C)C.[Na+] [WQ1114] | > 10000 | 19 | 
7 | CC[C@@]1(O[PH](=O)[O-])C(=O)OCc2c1cc1n(c2=O)Cc2cc3c(Cl)c4c(cc3nc2-1)OCO4.[Na+] [WQ1106] | > 10000 |  | 
8 | CCc1c2c(nc3ccc(O)cc13)-c1cc3c(c(=O)n1C2)COC(=O)[C@]3(O)CC [SN38, reference compound] |  | 290 | 
9 | CC[C@@]1(O[PH](=O)[O-])C(=O)OCc2c1cc1n(c2=O)Cc2c-1nc1ccccc1c2[Si](C)(C)C(C)(C)C.[Na+] [WQ1116] | > 10000 | 13 | 
10 | CC[C@@]1(O)C(=O)OCc2c1cc1n(c2=O)Cc2cc3c(CN(C)C)c(O)ccc3nc2-1 [Topotecan, reference compound] |  | 210 | anti-tumor effect on NCI-H929 xenografts in nude mice (in words) ([3]; 2 mg/kg): no significant anti-tumor effect; IR By RTV % [3, 4]: 37.3%; IR By TW % [3, 4]: 52.0%; RTV (X ± SD) [3, 4]: 25.3 ± 14.8; TW (X ± SD, g) [3, 4]: 0.71 ± 0.44 g; Bw (X ± SD, g) end [3, 5]: 19.2 ± 1.3 g; TV (X ± SD, mm^3) End [3, 5]: 1123.2 ± 608.9 mm^3; Bw (X ± SD, g) initial [3, 6]: 17.2 ± 1.0 g; TV (X ± SD, mm^3) initial [3, 6]: 45.9 ± 6.0 mm^3
11 | CCc1c2c(nc3cc(Cl)c(Cl)cc13)-c1cc3c(c(=O)n1C2)COC(=O)[C@@]3(CC)O[PH](=O)[O-].[Na+] [WQ1113] | > 10000 |  | 
12 | CCc1ccc2nc3c(cc2c1OC)Cn1c-3cc2c(c1=O)COC(=O)[C@@]2(CC)O[PH](=O)[O-].[Na+] [WQ1124] | > 10000 |  | 
13 | CCc1c2c(nc3ccccc13)-c1cc3c(c(=O)n1C2)COC(=O)[C@@]3(CC)O[PH](=O)[O-].[Na+] [WQ1107] | > 10000 |  | 
14 | CCc1c2c(nc3ccc(Cl)cc13)-c1cc3c(c(=O)n1C2)COC(=O)[C@@]3(CC)O[PH](=O)[O-].[Na+] [WQ1109] | > 10000 |  | 
15 | CCc1c2c(nc3cc4c(cc13)OCCO4)-c1cc3c(c(=O)n1C2)COC(=O)[C@@]3(CC)O[PH](=O)[O-].[Na+] [WQ1103] | > 10000 |  | 
16 | CCc1c2c(nc3ccc(C)cc13)-c1cc3c(c(=O)n1C2)COC(=O)[C@@]3(CC)O[PH](=O)[O-].[Na+] [WQ1108] | > 10000 | 38 | 
17 | CC[C@@]1(O[PH](=O)[O-])C(=O)OCc2c1cc1n(c2=O)Cc2c-1nc1ccccc1c2CC[Si](C)(C)C.[Na+] [WQ1115] | > 10000 | 25 | 
18 | CCc1c2c(nc3cc4c(cc13)OCO4)-c1cc3c(c(=O)n1C2)COC(=O)[C@@]3(CC)O[PH](=O)[O-].[Na+] [WQ1105] | > 10000 | 20 | 
19 | CCc1c2c(nc3cc(F)c(C)cc13)-c1cc3c(c(=O)n1C2)COC(=O)[C@@]3(CC)O[PH](=O)[O-].[Na+] [WQ1112] | > 10000 |  | 
20 | CC[C@@]1(O[PH](=O)[O-])C(=O)OCc2c1cc1n(c2=O)Cc2cc3cc(Cl)ccc3nc2-1.[Na+] [WQ1117] | > 10000 | 9 | 
21 | CCCc1ccc2nc3c(c(OC)c2c1)Cn1c-3cc2c(c1=O)COC(=O)[C@@]2(CC)O[PH](=O)[O-].[Na+] [WQ1125] | > 10000 |  | 
22 | CCCCc1ccc2nc3c(cc2c1)Cn1c-3cc2c(c1=O)COC(=O)[C@@]2(CC)O[PH](=O)[O-].[Na+] [WQ1121] | > 10000 |  | 
23 | CC[C@@]1(O[PH](=O)[O-])C(=O)OCc2c1cc1n(c2=O)Cc2cc3cc4c(cc3nc2-1)OCCO4.[Na+] [WQ1102] | > 10000 | 15 | 
24 | CCCc1ccc2nc3c(cc2c1)Cn1c-3cc2c(c1=O)COC(=O)[C@@]2(CC)O[PH](=O)[O-].[Na+] [WQ1120] | > 10000 |  | 
25 | CC[C@@]1(O[PH](=O)[O-])C(=O)OCc2c1cc1n(c2=O)Cc2cc3cc4c(cc3nc2-1)OCO4.[Na+] [WQ1104] | > 10000 |  | 
26 | CC[C@@]1(O[PH](=O)[O-])C(=O)OCc2c1cc1n(c2=O)Cc2c-1nc1ccccc1c2OC.[Na+] [WQ1122] | > 10000 | 5 | 
27 | CC[C@@]1(O[PH](=O)[O-])C(=O)OCc2c1cc1n(c2=O)Cc2c-1nc1ccc(C)cc1c2OC.[Na+] [WQ1123] | > 10000 |  | 
